Legend:
Experiment in all cases: relative viability (nuclei count vs DMSO), 5 days (fraction); higher = more cells survive
[1] = tested on: 201T
How it was run: (§1)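 Nuclei were stained with Hoechst during a one-step fixation (final 0.05% Triton X-100, 1% formaldehyde, 1 ug/ml Hoechst) carried out 5 days after dosing, then counted on 4× images. The cells, lung cancer lines in 1536-well plates, had been dosed by pin tool the day after seeding with one drug alone or a fixed anchor-drug dose plus five library-drug doses (not always all listed) in √10 steps. Relative viability is the nuclei count in treated wells divided by that in vehicle wells, and each value is the median of duplicate plates.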

[2] = tested on: BEN
How it was run: as §1

[3] = tested on: EMC-BAC-2
How it was run: as §1

[4] = tested on: HARA
How it was run: as §1

[5] = tested on: HCC-44
How it was run: as §1

[6] = tested on: LOU-NH91
How it was run: as §1

[7] = tested on: NCI-H1395
How it was run: as §1

[8] = tested on: NCI-H1993
How it was run: as §1

[9] = tested on: NCI-H2023
How it was run: as §1

[10] = tested on: NCI-H2087
How it was run: as §1

[11] = tested on: NCI-H2126
How it was run: as §1

[12] = tested on: NCI-H2347
How it was run: as §1

[13] = tested on: NCI-H23
How it was run: as §1

[14] = tested on: NCI-H3122
How it was run: as §1

[15] = tested on: NCI-H441
How it was run: as §1

[16] = tested on: NCI-H596
How it was run: as §1

[17] = tested on: NCI-H647
How it was run: as §1

[18] = tested on: NCI-H727
How it was run: as §1

[19] = tested on: NCI-H838
How it was run: as §1

O=c1cc(N2CCOCC2)oc2c(-c3cccc4c3sc3ccccc34)cccc12 + CC1(C)CCC(c2ccc(Cl)cc2)=C(CN2CCN(c3ccc(C(=O)NS(=O)(=O)c4ccc(N[C@H](CCN5CCOCC5)CSc5ccccc5)c(S(=O)(=O)C(F)(F)F)c4)cc3)CC2)C1 [Navitoclax] (partner 0.5 µM)
relative viability ([1]; first compound 0.01 µM): 1.2
relative viability ([1]; first compound 0.03162 µM): 1.17
relative viability ([1]; first compound 0.1 µM): 1.19
relative viability ([1]; first compound 0.3162 µM): 1.19
relative viability ([1]; first compound 1 µM): 1.18
relative viability ([2]; first compound 0.01 µM): 0.155
relative viability ([2]; first compound 0.03162 µM): 0.0681
relative viability ([2]; first compound 0.1 µM): 0.0673
relative viability ([2]; first compound 0.3162 µM): 0.0807
relative viability ([2]; first compound 1 µM): 0.0563
relative viability ([3]; first compound 0.01 µM): 1.09
relative viability ([3]; first compound 0.03162 µM): 1.13
relative viability ([3]; first compound 0.1 µM): 1.18
relative viability ([3]; first compound 0.3162 µM): 1.16
relative viability ([3]; first compound 1 µM): 1.17
relative viability ([4]; first compound 0.01 µM): 1.11
relative viability ([4]; first compound 0.03162 µM): 1.13
relative viability ([4]; first compound 0.1 µM): 1.15
relative viability ([4]; first compound 0.3162 µM): 1.17
relative viability ([4]; first compound 1 µM): 1.14
relative viability ([5]; first compound 0.01 µM): 0.854
relative viability ([5]; first compound 0.03162 µM): 0.94
relative viability ([5]; first compound 0.1 µM): 0.963
relative viability ([5]; first compound 0.3162 µM): 0.887
relative viability ([5]; first compound 1 µM): 0.931
relative viability ([6]; first compound 0.01 µM): 0.637
relative viability ([6]; first compound 0.03162 µM): 0.631
relative viability ([6]; first compound 0.1 µM): 0.695
relative viability ([6]; first compound 0.3162 µM): 0.747
relative viability ([6]; first compound 1 µM): 0.689
relative viability ([7]; first compound 0.01 µM): 1.08
relative viability ([7]; first compound 0.03162 µM): 1.16
relative viability ([7]; first compound 0.1 µM): 1.38
relative viability ([7]; first compound 0.3162 µM): 1.17
relative viability ([7]; first compound 1 µM): 1.23
relative viability ([8]; first compound 0.01 µM): 1.02
relative viability ([8]; first compound 0.03162 µM): 0.953
relative viability ([8]; first compound 0.1 µM): 0.976
relative viability ([8]; first compound 0.3162 µM): 0.921
relative viability ([8]; first compound 1 µM): 0.887
relative viability ([9]; first compound 0.01 µM): 1.07
relative viability ([9]; first compound 0.03162 µM): 0.912
relative viability ([9]; first compound 0.1 µM): 1
relative viability ([9]; first compound 0.3162 µM): 0.99
relative viability ([9]; first compound 1 µM): 1.01
relative viability ([10]; first compound 0.01 µM): 0.929
relative viability ([10]; first compound 0.03162 µM): 0.904
relative viability ([10]; first compound 0.1 µM): 1.01
relative viability ([10]; first compound 0.3162 µM): 0.919
relative viability ([10]; first compound 1 µM): 0.857
relative viability ([11]; first compound 0.01 µM): 0.845
relative viability ([11]; first compound 0.03162 µM): 0.839
relative viability ([11]; first compound 0.1 µM): 0.868
relative viability ([11]; first compound 0.3162 µM): 0.889
relative viability ([11]; first compound 1 µM): 0.794
relative viability ([12]; first compound 0.01 µM): 1.11
relative viability ([12]; first compound 0.03162 µM): 0.804
relative viability ([12]; first compound 0.1 µM): 0.844
relative viability ([12]; first compound 0.3162 µM): 0.754
relative viability ([12]; first compound 1 µM): 0.897
relative viability ([13]; first compound 0.01 µM): 0.981
relative viability ([13]; first compound 0.03162 µM): 0.846
relative viability ([13]; first compound 0.3162 µM): 0.832
relative viability ([13]; first compound 1 µM): 0.777
relative viability ([14]; first compound 0.01 µM): 1.02
relative viability ([14]; first compound 0.03162 µM): 0.981
relative viability ([14]; first compound 0.1 µM): 1.02
relative viability ([14]; first compound 0.3162 µM): 0.966
relative viability ([14]; first compound 1 µM): 0.985
relative viability ([15]; first compound 0.01 µM): 0.53
relative viability ([15]; first compound 0.03162 µM): 0.787
relative viability ([15]; first compound 0.1 µM): 1.59
relative viability ([15]; first compound 0.3162 µM): 0.738
relative viability ([15]; first compound 1 µM): 0.585
relative viability ([16]; first compound 0.01 µM): 0.928
relative viability ([16]; first compound 0.03162 µM): 0.945
relative viability ([16]; first compound 0.1 µM): 0.841
relative viability ([16]; first compound 0.3162 µM): 0.967
relative viability ([16]; first compound 1 µM): 1.17
relative viability ([17]; first compound 0.01 µM): 0.985
relative viability ([17]; first compound 0.3162 µM): 1.06
relative viability ([17]; first compound 1 µM): 1.1
relative viability ([18]; first compound 0.01 µM): 0.47
relative viability ([18]; first compound 0.03162 µM): 0.512
relative viability ([18]; first compound 0.1 µM): 0.39
relative viability ([18]; first compound 0.3162 µM): 0.398
relative viability ([18]; first compound 1 µM): 0.438
relative viability ([19]; first compound 0.01 µM): 1.17
relative viability ([19]; first compound 0.03162 µM): 1.13
relative viability ([19]; first compound 0.1 µM): 1.13
relative viability ([19]; first compound 0.3162 µM): 1.1
relative viability ([19]; first compound 1 µM): 1.1
